Results as given in patent US20120052041A1, “POLYMERIC NANOPARTICLES WITH ENHANCED DRUG-LOADING AND METHODS OF USE THEREOF” (THE BRIGHAM AND WOMEN'S HOSPITAL, INC., priority 2009, published 2012).
Like-named read-outs stand apart in the source and are kept apart here.

Tests used:
[1] = system: HUVEC; assay: HUVEC tube assay on matrigel; assay type: cell-based, human; settings: for inhibition at 50 µM: Homo sapiens, HUVEC, 48 hrs
Method: The effect of the drugs using an in vitro angiogenic assay were quantified as follows. HUVEC were seeded in 24-well plates, on glass coverslips that had been coated with matrigel, in medium containing 50 μM of LY or NP-LY for 24 and 48 hrs. At each time points, cells were fixed with 4% paraformaldehyde and immediately visualized under inverted light microscopy at 20× magnification (Nikon Eclipse). Since the matrigel tube assay often yields high variability, we took 10 fields of view per coverslip with 5 coverslips per conditions, and furthermore, used three morphometric methods using the NIS-elements software (Nikon, Melville, N.Y., courtesy of Dr Jeffrey M. Karp) to quantify the results. In the first such method, we measured the length of each tube per field, in the second we measured the associated number of nodes, whereas in the third method, we used a standard graticule to measure the number of vessels falling on each intersection.

[2] = system: AKT; assay: Immunoblotting of VEGF-induced AKT phosphorylation, HUVEC; assay type: cell-based, human; settings: 50 μM, 24 hours
[3] = system: HUVEC; assay: MTS assay of FGF-induced HUVEC proliferation; assay type: cell-based, human; settings: increasing concentrations, 24 and 48 hours
Excerpt: Human umbilical vein endothelial cells (HUVEC) were obtained from Cambrex Bio Science (Hopkinton, Mass.) and cultured in EGM-2 medium according to the manufacturer's protocol. A single donor was obtained at passage one, and cells were used between passages 2 and 5. After reaching the first confluence in 100 mm dishes (within 6 to 7 days), the cells were subcultured following trypsin (0.025%) and EDTA (0.01%) application, and plated at various densities depending on the experiment. For all experiments, HUVEC were synchronized overnight using serum reduced medium (0.1% FBS) prior to drug addition, except in the case of the tube assay. […]
Cancer or endothelial cells in 96-well plates were incubated with various doses of free LY or NP-LY for 24, 48 and 72 hrs. The percentage of viable cells were then quantified with 3-(4,5-Dimethylthiazol-2-yl)-5-(3-carboxymethoxyphenyl)-2-(4-sulfophenyl)-2H-tetrazolium (MTS) from the CellTiter 96 AQueous One Solution kit. MTS is reduced by mitochondrial dehydrogenases of live cells, yielding a colored adduct that can be read spectrophotometrically. Briefly, the cells were washed with PBS, incubated with 0.3 mg/ml of MTS, in basal medium without phenol red, for 4 hrs at 37° C. and absorbance was then measured at 490 nm in a plate reader (Versamax, Molecular Devices, Sunnyvale, Calif.). […]

[4] = system: MDA-MB-231; assay: Annexin V/propidium iodide apoptosis FACS, MDA-MB-231; assay type: cell-based, human
Method: (§1) Cells grown in 6-well plates were treated with drugs for 48 h, and incubated with 5 μL AnnexinV-Alexa Fluor 488 in binding buffer (10 mM HEPES, 140 mM NaCl, 2.5 mM CaCl2, pH 7.4) for 15 min in the dark, according to the manufacturer's protocol. Cells were then washed with binding buffer, counterstained with propidium iodide and immediately processed for FITC and propidium iodide staining using a Becton Dickinson FACSCalibur flow cytometer (excitation 488 and 585 nm, respectively). AnnexinV-Alexa Fluor 488, propidium iodide or both were omitted for the negative controls.
(§2) Cancer cells grown in 6-well plates were treated with drugs for 48 h, and incubated with 5 μl AnnexinV-Alexa Fluor 488 in binding buffer (10 mM HEPES, 140 mM NaCl, 2.5 mM CaCl2, pH 7.4) for 15 min in the dark, according to the manufacturer's protocol. Cells were then washed with binding buffer, counterstained with propidium iodide and immediately processed for FITC and propidium iodide staining using a Becton Dickinson FACSCalibur flow cytometer (excitation 488 and 585 nm, respectively). AnnexinV-Alexa Fluor 488, propidium iodide or both were omitted for the negative controls.

[5] = system: PI3K; settings: literature [17]; cited from earlier work
[6] = system: B16-F10; assay: MTS cell viability assay, B16-F10; assay type: cell-based; settings: Mus musculus, 48 hrs, read-out: proportion of viable cells as percentage of vehicle-treated control
Method: (§3) Cancer cells in 96-well plates were incubated with various doses PD or NP for 24, 48 and 72 hrs. The percentage of viable cells was then quantified with 3-(4,5-Dimethylthiazol-2-yl)-5-(3-carboxymethoxyphenyl)-2-(4-sulfophenyl)-2H-tetrazolium (MTS) from the CellTiter 96 AQueous One Solution kit. MTS is reduced by mitochondrial dehydrogenases of live cells, yielding a colored adduct that can be read spectrophotometrically. Briefly, the cells were washed with PBS, incubated with 0.3 mg/ml of MTS, in basal medium without phenol red, for 4 hrs at 37° C. and absorbance was then measured at 490 nm in a plate reader (Versamax, Molecular Devices, Sunnyvale, Calif.). Final absorbance, corresponding to cell proliferation, was plotted after removing background values from each data point.
(§4) Cancer or endothelial cells in 96-well plates were incubated with various doses of free LY or NP-LY for 24, 48 and 72 hrs. The percentage of viable cells were then quantified with 3-(4,5-Dimethylthiazol-2-yl)-5-(3-carboxymethoxyphenyl)-2-(4-sulfophenyl)-2H-tetrazolium (MTS) from the CellTiter 96 AQueous One Solution kit. MTS is reduced by mitochondrial dehydrogenases of live cells, yielding a colored adduct that can be read spectrophotometrically. […] Final absorbance, corresponding to cell proliferation, was plotted after removing background values from each data point.

[7] = system: AKT; assay: Immunoblotting of phosphorylated vs total AKT, MDA-MB-231; assay type: cell-based, human; settings: 50 μM, 24 hrs
Method: (§5) Cancer or endothelial cells were washed twice with PBS and directly lysed in 3× loading buffer containing 12% sodium dodecyl sulfate, 15% 2-mercaptoethanol, 1 mM sodium orthovandate and protease inhibitor cocktail tablets from Roche Applied Science (Indianapolis, Ind.). Cells were further homogenized by passing the lysates 3 times through an insulin needle. Samples were then heated for 5 min at 100° C. and equal amounts loaded onto tris-glycine SDS-polyacrylamide gels. Proteins were electrophoretically transferred onto polyvinylidene difluoride membranes, blocked for 1 h with 7% non-fat dry milk, and subsequently incubated overnight at 4° C. with primary antibodies directed against the phosphorylated or total forms of AKT. Proteins were detected with horseradish peroxidase-conjugated anti-rabbit secondary antibodies and Lumi-LightPLUS Western Blotting Substrate (Roche Applied Science). The blots were developed using GeneSnap and optical densities off the protein bands quantified using GeneTools (both from SynGene, Frederick, Md.). Predetermined molecular weight standards were used as markers. Proteins were normalized against actin.
To further evaluate the underlying mechanisms of action of nanoparticles in cancer cells, MDA-MB-231 and B16-F10 were treated with 50 μM of LY294002 or NP-LY and subjected to immunoblotting against the phospho- and total forms of AKT (FIG. 8A). […]

[8] = system: B16-F10; assay: Annexin V/propidium iodide apoptosis FACS, B16-F10; assay type: cell-based, mouse
Method: as §1, §2

[9] = system: LLC; assay: MTS cell viability assay, LLC; assay type: cell-based; settings: Mus musculus, Lewis lung carcinoma, 48 hrs, read-out: proportion of viable cells as percentage of vehicle-treated control
Method: as §3, §4

[10] = system: MDA-MB-231; assay: MTS cell viability assay, MDA-MB-231; assay type: cell-based; settings: Homo sapiens, 48 hrs, read-out: proportion of viable cells as percentage of vehicle-treated control
Method: as §3, §4

[11] = system: B16/F10 melanoma; assay: In vivo murine B16/F10 melanoma tumor model; design: species or system mouse
Method: Male C57/BL6 mice (20 g) were injected with 5×10^5 BL6/F10 melanoma cells into the flanks. The drug therapy was started after the tumors attained volume of 25 mm3. The animals were intravenously injected with free PD98059 or PD98059-nanoparticles such that the total dose of PD98059 was 5 mg/kg of PD98059 (administered by tail vein injection). A batch of PD98059 (free or as nanoparticle)-treated animals were subsequently injected with cisplatin (2.5 mg/kg), which was administered intraperitoneally after […] following the PD98059 dosing. The total volume of injection was 100 μl. The tumor volumes and body weights were monitored on a daily basis. The animals were sacrificed at predefined time points. The organs (liver, lung, spleen, kidney and tumor) were harvested immediately following sacrifice and divided into equal parts and stored at −80° C. for further analysis.
To validate the therapeutic efficacy of this treatment, the inventors randomly sorted mice bearing established B16/F10 melanomas into five groups, which received three doses of one of the following treatments (i) vehicle control (ii) free PD98 059 (5 mg/kg) (iii) PD98059-nanoparticle (equivalent to 5 mg/kg of PD98059) (iv) Cisplatin (1.25 mg/kg) and (v) PD98059-nanoparticle (equivalent to 5 mg/kg of PD98059)+Cisplatin (1.25 mg/kg). Cisplatin was administered intraperitoneally one day after the PD98059 administration in order to achieve a sequential biological effect of MAPK-inhibition followed by induction of chemotherapy-induced cytotoxicity. The mice injected with only vehicle formed large tumors by day 14, and consequently, were euthanized. The animals in the other groups were also sacrificed at the same time point to evaluate the effect of the treatments on tumor pathology.

[12] = system: ERK1/2; assay: Immunoblotting of phosphorylated vs total ERK1/2, MDA-MB-231; assay type: cell-based, human; settings: 50 μM
Method: as §5, with “Cells were washed” for “Cancer or endothelial cells were washed”, “forms of ERK1//2 and AKT. Proteins” for “forms of AKT. Proteins”
(§6) The inventors next evaluated the effect of the treatments on the phosphorylation status of ERK in the two cell lines. […]

[13] = system: ERK1/2; assay: Immunoblotting of phosphorylated vs total ERK1/2, B16-F10; assay type: cell-based, mouse; settings: 50 μM
Method: as §5, with “Cells were washed” for “Cancer or endothelial cells were washed”, “forms of ERK1//2 and AKT. Proteins” for “forms of AKT. Proteins”
as §6

[14] = system: MEK; settings: previous studies [15]; read-out: IC50 for inhibition of MEK; cited from earlier work
[15] = system: panel of 18 other serine/threonine kinases; settings: previous studies [15]; cited from earlier work

O=c1cc(N2CCOCC2)oc2c(-c3ccccc3)cccc12 [LY294002, 2-(4-morpholinyl)-8-phenylchromone]
tube formation ([1]; 50 μM, 24 hrs): significantly inhibited | inhibition at 50 µM ([1]; read-out: inhibition of branch length): 98% | inhibition at 50 µM ([1]; read-out: inhibition of the number of intersections): 87% | inhibition at 50 µM ([1]; read-out: inhibition of the number of nodes): 99% | inhibition of VEGF-induced phosphorylation of AKT [2]: complete inhibition | effect on FGF-induced cell proliferation [3]: […] | cells in early apoptosis ([4]; 48 hrs): 3.11% | cells in late apoptosis ([4]; 48 hrs): 0.09% | IC50 [5]: […] | viability at 50 µM [6]: 8% | inhibition of phosphorylation of AKT [7]: only minimal effect | cells in early apoptosis ([8]; 48 hrs): 61.64% | cells in late apoptosis ([8]; 48 hrs): 0.22% | viability at 50 µM [9]: 2% | viability at 50 µM [10]: 116%

N.N.[Cl][Pt][Cl] [cisplatin]
intratumoral ERK phosphorylation (immunostaining) ([11]; data not shown): detected | necrotic areas in hematoxylin-eosin tumor sections ([11]; data not shown): large necrotic areas | tumor apoptosis (TUNEL-staining) ([11]; data not shown): significant levels of apoptosis

COc1cccc(-c2cc(=O)c3ccccc3o2)c1N [PD98059]
intratumoral ERK phosphorylation (immunostaining) ([11]; data not shown): detected | tumor apoptosis (TUNEL-staining) ([11]; data not shown): minimal effect | tumor growth (tumor volume) ([11]; three doses, PD98059 5 mg/kg i.v., cisplatin 1.25 mg/kg i.p. one day later, to day 14): only partially inhibited | inhibition of ERK signaling (phospho-ERK1/2 vs total) [12]: 5 fold | induction of apoptosis ([4]; 48 hours): failed to induce significant apoptosis | increase in late apoptosis ([8]; 48 hours): 61 fold | number of cells in the necrotic stage relative to PD98059-nanoparticle-treated cells ([8]; 48 hours): 51 fold | effect on phospho-ERK signal [13]: almost completely abolished | IC50 [14]: […] | inhibitory effects against a panel of 18 other serine/threonine kinases [15]: no inhibitory effects
